Results on 11 compounds are retold here after paper PMC13303826, “Nicotinonitrile based dual inhibitors of tubulin and topoisomerase II exhibit potent anticancer activity” (Scientific Reports, 2026).

The term IC50 denotes the concentration needed to halve the response being measured.

Data set [1] concerns MCF7 cells. Description: LDH release cytotoxicity assay, MCF7. The class given is cell-based. The settings on record: Homo sapiens, 48 h, mean ± SD, read-out: In vitro cytotoxicity IC50 µM ± SD, MCF7. The procedure: (§1) HepG2 (Human liver carcinoma), HCT116 (human colorectal carcinoma), MCF7 (human breast adenocarcinoma), and the normal human skin fibroblast (BJ-1) cell lines were purchased from the american type culture collection (Rockville, MD, USA) and maintained in RPMI-1640 medium which was supplemented with 10% heat-inactivated FBS, 100U/ml penicillin and 100U/ml streptomycin. The cells were grown at 37 °C in a humidified atmosphere of 5% CO2. All experiments were conducted thrice in triplicate (n = 3). All the values were represented as means ± SD. Significant differences between the means of parameters as well as IC50s were determined by probit analysis using SPSS software program (SPSS Inc., Chicago, IL).
(§2) To determine the effect of each synthesized compound on membrane permeability in HepG2, MCF-7 and HCT116 cancer cell lines as well as BJ-1 normal cell line, a lactate dehydrogenase (LDH) release assay was used[29]–[33]. The cells were seeded in 24-well culture plates at a density of 1 × 10^4 cells/well in 500 µL volume and allowed to grow for 18 h before treatment. After treatment with a series of different concentrations of each compound or DOX (positive control), the plates were incubated for 48 h. Then, the supernatant (40 µL) was transferred to a new 96 well to determine LDH release and 6% triton X-100 (40 µL) was added to the original plate for determination of total LDH. An aliquot of 0.1 M potassium phosphate buffer (100 µL, pH 7.5) containing 4.6 mM pyruvic acid was mixed to the supernatant using repeated pipetting. Then, 0.1 M potassium phosphate buffer (100 µL, pH 7.5) containing 0.4 mg/mL reduced β-NADH was added to the wells. The kinetic changes were read for 1 min using ELISA microplate reader in absorbance at wavelength 340 nm. This procedure was repeated with 40 µL of the total cell lysate to determine total LDH. The percentage of LDH release was determined by dividing the LDH released into the media by the total LDH following cell lysis in the same well. The cell Passage numbers for MCF 7 = P13, Hep G2 = P15, HCT 116 = P 9.
(§3) All experiments were conducted in triplicate (n = 3). All the values were represented as mean ± SD. Significant differences between the means of parameters as well as IC50s were determined by probit analysis using SPSS software program (SPSS Inc., Chicago, IL).

Data set [2] relates to HepG2 cells. The data set is described as follows: LDH release cytotoxicity assay, HepG2. The class given is cell-based. The settings on record: Homo sapiens, 48 h, mean ± SD, read-out: In vitro cytotoxicity IC50 µM ± SD, HepG2. As to the method:
as §1, §2, §3
On the technique in general: LDH in the medium is a marker of cell lysis.

Data set [3] deals with HCT116 cells. Description: LDH release cytotoxicity assay, HCT116. The class given is cell-based. The settings on record: Homo sapiens, HCT-116, 48 h, mean ± SD, read-out: In vitro cytotoxicity IC50 µM ± SD, HCT116. As to the method: as §1, §2, §3
In data set [4] the test system is beta-tubulin. Description: Inhibition of tubulin polymerization in MCF-7 cells (beta-tubulin SimpleStep ELISA). It counts as cell-based, human. To be noted: MCF7 cells, concentration not given. An excerpt:
Beta-tubulin in vitro simple step ELISA® (Enzyme-Linked Immunosorbent Assay) kit is designed for quantitative measurement of beta-tubulin protein in human cell and tissue homogenate extract samples.
The SimpleStep ELISA® employs an affinity tag labeled capture antibody and a reporter conjugated detector antibody which immunocapture the sample analyte in solution. This entire complex (capture antibody/analyte/detector antibody) is in turn immobilized via immunoaffinity of an anti-tag antibody coating the well. To perform the assay, samples or standards are added to the wells, followed by the antibody mix. After incubation, the wells are washed to remove unbound material. TMB development solution is added and during incubation is catalyzed by horseradish peroxidase (HRP), generating blue coloration. This reaction is then stopped by addition of stop solution completing any color change from blue to yellow. Signal is generated proportionally to the amount of bound analyte and the intensity is measured at 450 nm. Optionally, instead of the endpoint reading, development of TMB can be recorded kinetically at 600 nm. The concentration of beta-tubulin protein in the samples is determined by comparing the optical density (OD) of the samples to the standard curve. Each experiment was repeated two times (Table 2).
Background: In an ELISA, binding on a coated surface is turned into a signal by an enzyme label.

In data set [5] the test system is Topo II. Description: Inhibition of topoisomerase II in MCF-7 cells (TOP2B sandwich ELISA). The class given is cell-based, human. The settings on record: MCF7 cells, concentration not given. The procedure:
Mouse TOP2B/Topoisomerase II Beta ELISAKit (Sandwich ELISA) is designed for the quantitative measurement of Topo II enzyme.
This assay is based on the sandwich ELISA principle. Each well of the supplied microtiter plate has been pre-coated with a target specific capture antibody. Standards or samples are added to the wells, and the target antigen binds to the capture antibody. Unbound standard or sample is washed away. A biotin-conjugated detection antibody is then added which binds to the captured antigen. Unbound detection antibody is washed away. An avidin-horseradish peroxidase (HRP) conjugate is then added which binds to the biotin. Unbound avidin-HRP conjugate is washed away. A TMB substrate is then added which reacts with the HRP enzyme resulting in color development. A sulfuric acid stop solution is added to terminate color development reaction and then the optical density (OD) of the well is measured at a wavelength of 450 nm ± 2 nm. An OD standard curve is generated using known antigen concentrations; the OD of an unknown sample can then be compared to the standard curve to determine its antigen concentration. Each experiment was repeated two times (Table 3).

In data set [6] the test system is BJ1 normal cells. The data set is described as follows: LDH release cytotoxicity assay, normal skin fibroblasts BJ1. It counts as cell-based, human. The settings on record: non-tumor BJ1 fibroblasts. The procedure:
as §1, §2, §3

With `Cc1cc(-c2ccco2)c(C#N)c2nnnn12` [Compound 33, 7-(furan-2-yl)-5-methyltetrazolo[1,5-a]pyridine-8-carbonitrile], the concentration for half-maximal inhibition (IC50) stood at 2.6 ± 0.2 µM in data set [1], 25.2 ± 2.5 µM in data set [2] and 40.7 ± 3.9 µM in data set [3]. Besides, the “tubulin polymerization % inhibition” value in data set [4] is on record as 68.9%.
In the case of `COc1cccc2c1C(=O)c1c(O)c3c(c(O)c1C2=O)C[C@@](O)(C(=O)CO)C[C@@H]3O[C@H]1C[C@H](N)[C@H](O)[C@H](C)O1` [DOX, doxorubicin, reference compound], the IC50 in data set [1] was 2.8 ± 0.3 µM; in data set [2], 2.6 ± 0.2 µM; in data set [3], 12.5 ± 1.5 µM. Also, the “Topo II % inhibition” value in data set [5] is reported as 81.6%.
In the case of `COc1cc(OC)cc(-c2cc(-c3ccc(OC)c(OC)c3)nc(N=P(c3ccccc3)(c3ccccc3)c3ccccc3)c2C#N)c1` [Compound 37, 6-(3,4-Dimethoxyphenyl)-4-(3,5-dimethoxyphenyl)-2-((triphenyl-λ^5-phosphaneylidene)amino)-nicotinonitrile], the results for the IC50 in data set [1], in data set [2] and in data set [3] were 2.6 ± 0.1 µM, 29.3 ± 2.5 µM and 36 ± 3.3 µM, respectively. In data set [4], the “tubulin polymerization % inhibition” value is given as 74.3%. Besides, the “Topo II % inhibition” value in data set [5] came to 82.4%.
In the case of `COc1ccc(-c2cc(-c3cc(OC)c(OC)c(OC)c3)c(C#N)c3nnnn23)cc1OC` [Compound 27, 5-(3,4-dimethoxyphenyl)-7-(3,4,5-trimethoxyphenyl)tetrazolo[1,5-a]pyridine-8-carbonitrile], the IC50 is 2.5 ± 0.2 µM in data set [1], 25.5 ± 2.4 µM in data set [2] and 60.1 ± 6.2 µM in data set [3]. Moreover, in data set [4], the “tubulin polymerization % inhibition” value worked out at 49.8%.
On to `COc1cc(-c2cc(-c3ccco3)c(C#N)c(Cl)n2)cc(OC)c1OC` [Compound 24, 2-Chloro-4-(furan-2-yl)-6-(3,4,5-trimethoxyphenyl)nicotinonitrile], for which the IC50 worked out at 2.5 ± 0.2 µM in data set [1], 22.7 ± 2.1 µM in data set [2] and 49.3 ± 4.2 µM in data set [3]. Besides, in data set [4], the “tubulin polymerization % inhibition” value was found to be 55.4%. Also, the “Topo II % inhibition” value in data set [5] was 55.3%.
With `COc1ccc(-c2cc(-c3cc(OC)c(OC)c(OC)c3)c(C#N)c(N=P(c3ccccc3)(c3ccccc3)c3ccccc3)n2)cc1OC` [Compound 35, 6-(3,4-Dimethoxyphenyl)-4-(3,4,5-trimethoxyphenyl)-2-((triphenyl-λ^5-phosphaneylidene)-amino)nicotinonitrile], the IC50 in data set [1] came out at 2.7 ± 0.1 µM; in data set [2], 32.4 ± 3.1 µM; in data set [3], 57.6 ± 4.1 µM. The “tubulin polymerization % inhibition” value in data set [4] was determined as 61.9%.
Take `COc1ccc(-c2cc(-c3ccc(OC)c(OC)c3)nc(N=P(c3ccccc3)(c3ccccc3)c3ccccc3)c2C#N)cc1` [Compound 39, 6-(3,4-Dimethoxyphenyl)-4-(4-methoxyphenyl)-2-((triphenyl-λ^5-phosphaneylidene)amino)-nicotinonitrile]: the IC50 turned out to be 3 ± 0.1 µM in data set [1], 12.6 ± 1.1 µM in data set [2] and 32.5 ± 3.2 µM in data set [3]. Also, the “Cytotoxicity / selectivity toward BJ1 normal cells (in words)” value in data set [6] is recorded as “good selectivity”.
On to `Cc1cc(-c2ccco2)c(C#N)c(N=P(c2ccccc2)(c2ccccc2)c2ccccc2)n1` [Compound 41, 4-(Furan-2-yl)-6-methyl-2-((triphenyl-λ^5-phosphaneylidene)amino)nicotinonitrile], for which the values for the IC50 in data set [1], in data set [2] and in data set [3] were 2.4 ± 0.1 µM, 27.3 ± 2.3 µM and 38.2 ± 2.8 µM, respectively. Besides, the “Cytotoxicity / selectivity toward BJ1 normal cells (in words)” value in data set [6] was “good selectivity”. Besides, the “tubulin polymerization % inhibition” value in data set [4] was 61.2%.
For `COc1ccc(-c2cc(-c3cc(OC)cc(OC)c3)c(C#N)c(N=P(c3ccccc3)(c3ccccc3)c3ccccc3)n2)cc1` [Compound 38, 4-(3,5-Dimethoxyphenyl)-6-(4-methoxyphenyl)-2-((triphenyl-λ^5-phosphaneylidene)amino)-nicotinonitrile], the results for the IC50 in data set [1], in data set [2] and in data set [3] were 2.5 ± 0.1 µM, 12.2 ± 1.1 µM and 31.5 ± 3.2 µM, respectively. Moreover, the “Cytotoxicity / selectivity toward BJ1 normal cells (in words)” value in data set [6] is reported as “good selectivity”. For the same compound, the “tubulin polymerization % inhibition” value in data set [4] was 71.7%.
As for `COc1ccc(-c2cc(-c3cc(OC)cc(OC)c3)c(C#N)c(Cl)n2)cc1` [Compound 22, 2-Chloro-4-(3,5-dimethoxyphenyl)-6-(4-methoxyphenyl)nicotinonitrile], the IC50 came to 2.6 ± 0.2 µM in data set [1], 25.3 ± 2.3 µM in data set [2] and 36.8 ± 3.5 µM in data set [3]. Moreover, in data set [4], the “tubulin polymerization % inhibition” value is on record as 70.9%. In data set [5], the “Topo II % inhibition” value is 42%.
Regarding `COc1ccc(-c2cc(-c3cc(OC)cc(OC)c3)c(C#N)c3nnnn23)cc1` [Compound 30, 7-(3,5-dimethoxyphenyl)-5-(4-methoxyphenyl)tetrazolo[1,5-a]pyridine-8-carbonitrile], the half-inhibitory concentration (IC50) amounted to 3.2 ± 0.2 µM in data set [1], 27.1 ± 2.2 µM in data set [2] and 40.5 ± 3.3 µM in data set [3].
